Experimental data published in PubChem BioAssay (NCI).
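Each compound was tested at five concentrations against cells in 96-well plates for 48 hours. TGI: concentration producing complete growth inhibition.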

Columns and labels:
Assay in all cases: NCI-60 cell line screen, 48 h
[1] = test system: DLD-1 colon
[2] = test system: DMS 114 small cell lung
[3] = test system: HOP-18 NSCLC
[4] = test system: LXFL 529 NSCLC
[5] = test system: M19-MEL melanoma
[6] = test system: SNB-78 CNS
[7] = test system: XF 498 CNS
[8] = test system: RXF-631 renal
[9] = test system: MDA-N

`CCOC(=O)NC(=O)c1cn(CCCOC(=O)CCCCCCCCC(=O)OCCCn2cc(C(=O)NC(=O)OCC)c(=O)[nH]c2=O)c(=O)[nH]c1=O` gave a TGI [1] of 53.1 µM, a TGI [2] of 39.2 µM and a TGI [3] of 56.4 µM. It also gave a TGI [4] of 79.8 µM, a TGI [5] greater than 100 µM and a TGI [6] greater than 100 µM. It also gave a TGI [7] of 72.4 µM.
`O=C(O)c1ccc([N+](=O)[O-])c2c(=O)c3ccccc3[nH]c12` gave a TGI [1] greater than 100 µM, a TGI [2] greater than 100 µM and a TGI [3] greater than 100 µM. The TGI [4] was greater than 100 µM, the TGI [5] was greater than 100 µM and the TGI [8] was greater than 100 µM. The TGI [6] was greater than 100 µM.
Compound `COC[C@H]1OC(=O)c2coc3c2[C@@]1(C)C1=C(C3=O)[C@@H]2CCC(=O)[C@@]2(C)C[C@H]1OC(C)=O` has a TGI [9] greater than 100 µM.
`COc1ccc(C=NC23CC4CC(CC(C4)C2)C3)cc1` was tested, and the TGI [2] was greater than 100 µM, the TGI [5] was greater than 10 µM and the TGI [6] was greater than 100 µM.
`Cc1ccc2c(=O)[nH]sc2c1` gave a TGI [9] of 27 µM.
For `O=Cc1[nH]c2ccccc2c1Br`, the TGI [1] was greater than 100 µM, the TGI [2] was 44.7 µM and the TGI [3] was 83.4 µM. It also gave a TGI [4] of 60.6 µM, a TGI [5] of 59.7 µM and a TGI [8] of 44.1 µM. For the same compound, the TGI [6] was 44.1 µM and the TGI [7] was 63.7 µM.
`Cc1cc2c(c(C#N)c1C)NC(=O)C(CC(=O)O)C2=O` (stereo not given) gave a TGI [1] greater than 100 µM, a TGI [2] greater than 100 µM and a TGI [3] greater than 100 µM. The TGI [4] was greater than 100 µM, the TGI [5] was greater than 100 µM and the TGI [8] was greater than 100 µM. It also gave a TGI [6] greater than 100 µM and a TGI [7] greater than 100 µM.
`Cc1cccc(C)c1NC(=O)C(=O)CC(=O)CO` gave a TGI [1] greater than 100 µM, a TGI [2] greater than 100 µM and a TGI [3] greater than 100 µM. For the same compound, the TGI [4] was greater than 100 µM, the TGI [5] was greater than 100 µM and the TGI [8] was greater than 100 µM. For the same compound, the TGI [6] was greater than 100 µM.
Work on `O=C(c1ccc(NCN2C(=O)CCC2=O)cc1)c1ccc(NCN2C(=O)CCC2=O)cc1` yielded a TGI [1] greater than 100 µM, a TGI [4] greater than 100 µM and a TGI [5] greater than 100 µM. The TGI [8] was greater than 100 µM, the TGI [6] was greater than 100 µM and the TGI [7] was greater than 100 µM.
Compound `O=C1NC2(O)c3ccccc3C(=O)C2(O)N1c1ccccc1` (stereo not given) has a TGI [1] greater than 100 µM, a TGI [2] greater than 100 µM and a TGI [3] greater than 100 µM. For the same compound, the TGI [4] was greater than 100 µM, the TGI [5] was greater than 100 µM and the TGI [8] was greater than 100 µM. The TGI [7] was greater than 100 µM.
Compound `CC(=O)O[C@@H]1CC(C)C2CC2C2=C(C(O)OC2O)[C@@H]1C(C)CCC=C(C)C` (stereo not given in full) has a TGI [1] of 73.3 µM, a TGI [2] of 50.4 µM and a TGI [4] of 81.9 µM. The TGI [5] was 47.5 µM, the TGI [6] was 90.2 µM and the TGI [7] was 49.9 µM.
For `COC1=C(C(=O)OC(C)(C)C)[C@]2(C)C(C(=O)OC(C)(C)C)C(OC)=C(C(=O)OC(C)(C)C)[C@]2(C)C1C(=O)OC(C)(C)C` (stereo not given in full), the TGI [1] was greater than 100 µM, the TGI [2] was greater than 100 µM and the TGI [3] was greater than 100 µM. For the same compound, the TGI [4] was greater than 100 µM, the TGI [5] was greater than 100 µM and the TGI [6] was greater than 100 µM. It also gave a TGI [7] greater than 100 µM.
`COc1cc2c(OC)c(c1)CCCC1=CC(=O)C=C(CCC2)C1=O` showed a TGI [9] of 30.2 µM.
In the case of `Cn1c2ccc([N+](=O)[O-])cc2c(=O)c2c(O)cc(O)cc21`, the TGI [9] is reported as greater than 100 µM.
For `O[C@]12CCCC[C@H]1CCC2`, the TGI [2] was greater than 100 µM, the TGI [4] was greater than 100 µM and the TGI [5] was greater than 100 µM. For the same compound, the TGI [8] was greater than 100 µM, the TGI [6] was greater than 100 µM and the TGI [7] was greater than 100 µM.
For `CC(=S)NNC(=O)c1ccncc1`, the TGI [1] was greater than 100 µM, the TGI [3] was greater than 100 µM and the TGI [4] was greater than 100 µM. For the same compound, the TGI [5] was greater than 100 µM, the TGI [6] was greater than 100 µM and the TGI [7] was greater than 100 µM.
In the case of `CNC1NC(=O)c2ccccc2N1Cc1ccc(F)cc1` (stereo not given), the TGI [9] is reported as greater than 100 µM.
`COC1CC(OS(=O)(=O)c2ccc(C)cc2)C(OS(=O)(=O)c2ccc(C)cc2)C(COS(=O)(=O)c2ccc(C)cc2)O1` (stereo not given) gave a TGI [1] of 22.7 µM, a TGI [2] of 15.1 µM and a TGI [3] of 8.36 µM. The TGI [4] was 18.7 µM, the TGI [5] was 20 µM and the TGI [6] was greater than 100 µM.
`CCOC(=O)C#Cc1ccc(C#CC(=O)OCC)cc1` showed a TGI [9] of 4.87 µM.
